Values of other authors as cited in US20230248696A1, “LENALIDOMIDE PRODRUGS, POLYMERIC CONJUGATES, AND FORMULATIONS THEREOF, AND THEIR USES FOR THE TREATMENT OF MULTIPLE MYELOMA” (DYNAMIC BIOLOGICS INC., priority 2019, published 2023).

How the values were obtained:
[1] = not given; remark: listed apart in the source
[2] = high solubility and low permeability
KG-1 cells = details: cell line without chromosome 5 deletions
[3] = test system: TNF-α, IL-1β, IL-6 and IL-12
[4] = test system: IL-10, IL-2 and Interferon gamma (IFN-γ); details: peripheral blood mononuclear cells
IL-2 = details: in vitro, versus racemic lenalidomide
TNF-alpha = details: in vitro, versus racemic lenalidomide
[5] = in vitro, versus racemic lenalidomide

reduction of maximal plasma concentration (Cmax) by co-administration with food (co-administration with food) [%]	oral lenalidomide dose absorbed (oral, fasting conditions) [%]	reduction of area under the concentration-time curve (AUC) by food (oral, with food) [%]	reduction of maximum concentration (Cmax) by food (oral, with food) [%]	patients with dyspepsia ([1]; multiple myeloma patients treated with lenalidomide) [%]	BCS class [2]	inhibition of COX-2 expression (cyclooxygenase-2 (COX-2))	Compound	patients discontinuing maintenance therapy because of neurotoxicity ([1]; maintenance therapy) [%]	inhibiting growth of Namalwa cells (Namalwa cells)	inhibiting growth of KG-1 cells (KG-1 cells)	inhibition of COX-1 expression (COX-1)	inhibition of pro-inflammatory cytokines TNF-α, IL-1β, IL-6 and IL-12 [3]	production of IL-10, IL-2 and IFN-γ [4]	potency for IL-2 induction (increased production) (IL-2)	potency for TNF-alpha inhibition (TNF-alpha)	potency for anti-proliferative activities [5]
36	> 90	20	50	20	3	inhibits	Nc1cccc2c1CN(C1CCC(=O)NC1=O)C2=O (racemic) [lenalidomide, 3-(4′ aminoisoindoline-1′-one)-1-piperidine-2,6-dione]	75	effective	much less effective	not	potent inhibitor	increases production			
							[2H]C1([2H])C(=O)NC(=O)[C@@]([2H])(N2Cc3c(N)cccc3C2=O)C1([2H])[2H] [CTP-221]							greater potency compared to racemic lenalidomide	greater potency compared to racemic lenalidomide	greater potency compared to racemic lenalidomide
